Literature values in patent publication US9023395B2, “Formulation of active agent loaded activated PLGA nanoparticles for targeted cancer nano-therapeutics” (University of North Texas Health Science Center at Fort …, priority 2007, dated 2015).

Settings: for Solubility: solvent in which the linker is soluble

water solubility | Solubility | SMILES
water insoluble | DMSO | O=C(CCN1C(=O)C=CC1=O)ON1C(=O)CCC1=O [BMPS, N-[b-maleimidopropyl-oxy] succinimide ester]
water insoluble | DMSO | O=C(CCCC(=O)ON1C(=O)CCC1=O)ON1C(=O)CCC1=O [DSG, Disuccinimidyl glutarate]
– | DMSO | CCCCCCCCCCCCCCCC(=O)ON1C(=O)CCC1=O [PAS, Palmitic acid N- hydroxysuccin- imide ester]
